The target of the experiment is T1, MRGPRX2 LAD2 (Homo sapiens, UniProt Q96LB1).
T1 construct: host or cells: LAD2 human mast cells
T1 sequence (Q96LB1 1-330): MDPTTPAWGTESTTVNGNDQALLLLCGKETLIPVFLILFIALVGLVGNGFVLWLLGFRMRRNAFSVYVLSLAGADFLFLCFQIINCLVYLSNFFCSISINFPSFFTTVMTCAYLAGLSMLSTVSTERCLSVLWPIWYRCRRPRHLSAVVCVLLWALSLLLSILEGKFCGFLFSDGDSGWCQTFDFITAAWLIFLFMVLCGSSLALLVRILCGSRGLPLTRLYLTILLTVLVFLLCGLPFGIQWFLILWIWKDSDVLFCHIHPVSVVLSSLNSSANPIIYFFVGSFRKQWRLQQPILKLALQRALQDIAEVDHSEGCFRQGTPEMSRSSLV
Put plainly: LAD2 β-hexosaminidase release assay (degranulation), Cortistatin-14 at EC75. It is filed as cell-based. As to conditions: LAD2 cells; 1 hour compound incubation, Cortistatin-14 at EC75 for 30 minutes; percent degranulation (β-hexosaminidase). As for the experimental part: LAD2 cells obtained from the NIH were cultured in StemPro34 (Gibco) serum-free media supplemented with GlutaMax, penicillin and streptomycin, and 100 ng/mL SCF (Invitrogen). Cells were maintained in a 37° C., 5% CO2 humidified incubator at a concentration of 2-5E5 cells/mL, with hemidepletion once a week.
One day prior to the assay, cells were starved of SCF at a concentration of 2.3E5 cells/mL. On the day of the assay cells were washed twice in Tyrode's Buffer containing 0.04% BSA (assay buffer) and plated in a 96 well-v-bottom assay plate at 20,000 cells per well in 80 μL of assay buffer. Compounds were solubilized at 10 mM DMSO and added as a 10-fold overconcentrated 8-point curve in assay buffer in a volume of 10 μL using the JANUS liquid handler. Assay plates were incubated for 1 hour at 37° C. Cortistatin-14 was diluted in assay buffer to […] its predetermined EC75 and added to the assay plates in a volume of 10 μL. Assay plates were incubated at 37° C. for 30 minutes. After incubation, cells were pelleted and 50 μL of supernatant from each well was transferred to a 96 well flat bottom plate containing 100 μL of substrate solution (3.5 mg/mL p-Nitrophenyl-N-acetyl-β-D-glucosaminide (Sigma Aldrich) in 40 mM Citrate Buffer (Thermo Fisher)). The remaining cell pellets were lysed with 150 μL of 0.1% Triton-X-100 and mixed thoroughly. 50 μL of lysate was transferred to a 96-well flat bottom plate containing 100 μL of substrate solution. Plates with supernatants and lysates were incubated at 37° C. for 90 minutes prior to addition of 50 μL of 400 mM Glycine buffer (pH 10.7). The plates were read on a Perkin Elmer Envision plate reader at an Abs of 405 nanometers. Percent degranulation was calculated and Xlfit was used to calculate an EC50 value for each compound using a 4-parameter logistic curve fitting model. EC50 ranges are reported as follows: A<100 nM; B 0.1-1 μM; C>1 μM.

SMILES strings stand for the structures.

Usually EC50 stands for the midpoint of the concentration-response curve. A higher EC50 goes with lower potency in that assay. `CS(=O)(=O)Nc1cccc(C(=O)N[C@H]2C[C@@H](Nc3cc(C(F)(F)F)nc4ccc(Cl)cc34)CN(C(=O)C(F)F)C2)c1` [Example 72] showed an EC50 of less than 100 nM.

`O=C(N[C@H]1C[C@@H](Nc2cc(C(F)(F)F)nc3ccc(Cl)cc23)CN(C(=O)[C@H]2CC2(F)F)C1)c1cn(CC(F)(F)F)nc1C1CC1` [Example 74] showed a concentration giving a half-maximal response (EC50) of less than 100 nM.

With `O=C(N[C@H]1C[C@@H](Nc2cc(C(F)(F)F)nc3ccc(Cl)cc23)CN(C(=O)[C@@H]2CC2(F)F)C1)c1cn(CC(F)(F)F)nc1C1CC1` [Example 75], the EC50 was less than 100 nM.

The molecule `CC(C)(O)Cn1cc(C(=O)N[C@H]2C[C@@H](Nc3cc(C(F)(F)F)nc4ccc(Cl)cc34)CN(C3CC(F)(F)C3)C2)c(Cl)n1` [Example 76] displayed an EC50 of 100 to 1000 nM.

`CC(C)(O)Cn1cc(C(=O)N[C@H]2C[C@@H](Nc3cc(C(F)(F)F)nc4ccc(Cl)cc34)CN(C(=O)[C@H]3CC3(F)F)C2)c(Cl)n1` [Example 78] registered an EC50 of less than 100 nM.

As to `COCC(F)(F)C(=O)N1C[C@@H](NC(=O)c2cn(CC(C)(C)O)nc2Cl)C[C@@H](Nc2cc(C(F)(F)F)nc3ccc(Cl)cc23)C1` [Example 79], the EC50 is less than 100 nM.

Consider `CC(C)(O)Cn1cc(C(=O)N[C@H]2C[C@@H](Nc3cc(C(F)(F)F)nc4ccc(Cl)cc34)CN(C(=O)COC(F)(F)F)C2)c(Cl)n1` [Example 80], for which the concentration for a half-maximal effect (EC50) is less than 100 nM.

On to `CC(C)(O)Cn1cc(C(=O)N[C@H]2C[C@@H](Nc3cc(C(F)(F)F)nc4ccc(Cl)cc34)CN(C(=O)C3(F)CC3)C2)c(Cl)n1` [Example 81], for which the EC50 was less than 100 nM.

Regarding `CC(C)(O)Cn1cc(C(=O)N[C@H]2C[C@@H](Nc3cc(C(F)(F)F)nc4ccc(Cl)cc34)CN(C(=O)C3(C(F)(F)F)CC3)C2)c(Cl)n1` [Example 82], the concentration for a half-maximal effect (EC50) is less than 100 nM.

`CC(C)(O)Cn1cc(C(=O)N[C@H]2C[C@@H](Nc3c(F)c(C(F)(F)F)nc4ccc(Cl)cc34)CN(C(=O)C(C)(C)F)C2)c(Cl)n1` [Example 83] showed an EC50 of less than 100 nM.

The molecule `CC(C)(O)Cn1cc(C(=O)N[C@H]2C[C@@H](Nc3cc(C(F)(F)F)nc4ccc(Cl)cc34)CN(C(=O)OCC(F)(F)F)C2)c(Cl)n1` [Example 84] registered an EC50 of less than 100 nM.

`CC(C)(O)Cn1cc(C(=O)N[C@H]2C[C@@H](Nc3cc(C(F)(F)F)nc4ccc(Cl)cc34)CN(C(=O)c3ccccc3F)C2)c(Cl)n1` [Example 85] registered an EC50 of less than 100 nM.

`CC(C)(O)Cn1cc(C(=O)N[C@H]2C[C@@H](Nc3cc(C(F)(F)F)nc4ccc(Cl)cc34)CN(C(=O)[C@H](NC(=O)C(F)(F)F)c3ccccc3)C2)c(Cl)n1` [Example 86] came in with an EC50 of less than 100 nM.

Take `COCC(F)(F)C(=O)N1C[C@@H](NC(=O)c2cn(CC(F)(F)F)nc2C2CC2)C[C@@H](Nc2cc(C(F)(F)F)nc3ccc(Cl)cc23)C1` [Example 87]: the EC50 was less than 100 nM.

`CC(C)(O)Cn1cc(C(=O)N[C@H]2C[C@@H](Nc3cc(C(F)(F)F)nc4ccc(Cl)cc34)CN(C(=O)C(F)(F)c3ccc(C#N)cc3)C2)c(Cl)n1` [Example 88] registered a concentration giving a half-maximal response (EC50) of less than 100 nM.

For `O=C(N[C@H]1C[C@@H](Nc2cc(C(F)(F)F)nc3ccc(Cl)cc23)CN(C(=O)C(F)(F)F)C1)c1cn(CC(F)(F)F)nc1C1CC1` [Example 89], the half-maximal effective concentration (EC50) was less than 100 nM.

In turn, `O=C(N[C@H]1C[C@@H](Nc2cc(C(F)(F)F)nc3ccc(Cl)cc23)CN(C(=O)C(F)F)C1)c1cn(CC(F)(F)F)nc1C1CC1` [Example 90] registered a half-maximal effective concentration (EC50) of less than 100 nM.

The molecule `O=C(N[C@H]1C[C@@H](Nc2cc(C(F)(F)F)nc3ccc(Cl)cc23)CN(C2COC2)C1)c1cn(CC(F)(F)F)nc1C1CC1` [Example 91] had a concentration for a half-maximal effect (EC50) of 100 to 1000 nM.

Regarding `O=C(N[C@H]1C[C@@H](Nc2cc(C(F)(F)F)nc3ccc(Cl)cc23)CN(c2ccccn2)C1)c1cn(CC(F)(F)F)nc1C1CC1` [Example 92], the EC50 was less than 100 nM.

As to `Cn1nnc(N2C[C@@H](NC(=O)c3cn(CC(F)(F)F)nc3C3CC3)C[C@@H](Nc3cc(C(F)(F)F)nc4ccc(Cl)cc34)C2)n1` [Example 93], the concentration for a half-maximal effect (EC50) was less than 100 nM.

For the molecule `CC(=O)N1C[C@@H](NC(=O)c2c[nH]c3ncccc23)C[C@@H](Nc2cc(C(F)(F)F)nc3ccc(Cl)cc23)C1` [Example 94], the EC50 is less than 100 nM.

Regarding `CC(=O)N1C[C@@H](NC(=O)c2cn(CC(C)(C)O)nc2C(F)(F)F)C[C@@H](Nc2cc(C(F)(F)F)nc3ccc(Cl)cc23)C1` [Example 95], the concentration for a half-maximal effect (EC50) is less than 100 nM.

`CC(=O)N1C[C@@H](NC(=O)c2cn(CC(F)(F)F)nc2C(F)(F)F)C[C@@H](Nc2cc(C(F)(F)F)nc3ccc(Cl)cc23)C1` [Example 96] registered an EC50 of less than 100 nM.

Turning to `CC(=O)N1C[C@@H](NC(=O)c2c[nH]c3cccnc23)C[C@@H](Nc2cc(C(F)(F)F)nc3ccc(Cl)cc23)C1` [Example 97], the EC50 is less than 100 nM.

For the molecule `CC(=O)N1C[C@@H](NC(=O)c2cn(CC(C)(C)O)c3ncccc23)C[C@@H](Nc2cc(C(F)(F)F)nc3ccc(Cl)cc23)C1` [Example 98], the EC50 is less than 100 nM.

Regarding `CC(=O)N1C[C@@H](NC(=O)c2cn(CC(F)F)nc2C(F)(F)F)C[C@@H](Nc2cc(C(F)(F)F)nc3ccc(Cl)cc23)C1` [Example 99], the 50% effective concentration (EC50) was less than 100 nM.

Molecule `CC(=O)N1C[C@@H](NC(=O)c2cn(CC(F)(F)F)nc2C2CCC2)C[C@@H](Nc2cc(C(F)(F)F)nc3ccc(Cl)cc23)C1` [Example 100] registered an EC50 of less than 100 nM.

For `CC(=O)N1C[C@@H](NC(=O)c2cn(CS(C)(=O)=O)nc2Cl)C[C@@H](Nc2cc(C(F)(F)F)nc3ccc(Cl)cc23)C1` [Example 101], the EC50 is less than 100 nM.

As for `COCc1nn(CC(F)(F)F)cc1C(=O)N[C@H]1C[C@@H](Nc2cc(C(F)(F)F)nc3ccc(Cl)cc23)CN(C(C)=O)C1` [Example 102], the EC50 is less than 100 nM.

`CC(=O)N1C[C@@H](NC(=O)c2cn(CC(C)(C)O)nc2C(F)F)C[C@@H](Nc2cc(C(F)(F)F)nc3ccc(Cl)cc23)C1` [Example 103] showed a half-maximal effective concentration (EC50) of less than 100 nM.

With `CC(=O)N1C[C@@H](NC(=O)c2cn(CC(C)(C)O)nc2C)C[C@@H](Nc2cc(C(F)(F)F)nc3ccc(Cl)cc23)C1` [Example 104], the EC50 was less than 100 nM.

With `CC(=O)N1C[C@@H](NC(=O)c2cn(C3CCS(=O)(=O)CC3)nc2C(F)(F)F)C[C@@H](Nc2cc(C(F)(F)F)nc3ccc(Cl)cc23)C1` [Example 106], the EC50 is less than 100 nM.

In turn, `CC(=O)N1C[C@@H](NC(=O)c2cn(C3CC(F)(F)C3)nc2C(F)F)C[C@@H](Nc2cc(C(F)(F)F)nc3ccc(Cl)cc23)C1` [Example 108] came in with a concentration giving a half-maximal response (EC50) of less than 100 nM.

Regarding `CC(=O)N1C[C@@H](NC(=O)c2cn(CC(F)(F)F)nc2C2CC2)C[C@@H](Nc2cc(C(F)(F)F)nc3ccc(Cl)cc23)C1` [Example 109], the EC50 is less than 100 nM.

`CC(=O)N1C[C@@H](NC(=O)c2cn(CC(F)F)nc2C2CC2)C[C@@H](Nc2cc(C(F)(F)F)nc3ccc(Cl)cc23)C1` [Example 110] gave a 50% effective concentration (EC50) of less than 100 nM.

The molecule `CC(=O)N1C[C@@H](NC(=O)c2ccc3[nH]ccc3c2)C[C@@H](Nc2cc(C(F)(F)F)nc3ccc(Cl)cc23)C1` [Example 111] had an EC50 of less than 100 nM.

Regarding `CC(=O)N1C[C@@H](NC(=O)c2ccc3cc[nH]c3c2)C[C@@H](Nc2cc(C(F)(F)F)nc3ccc(Cl)cc23)C1` [Example 112], the 50% effective concentration (EC50) was less than 100 nM.

Turning to `CC(=O)N1C[C@@H](NC(=O)c2cn(CC(F)(F)F)cc2C(F)(F)F)C[C@@H](Nc2cc(C(F)(F)F)nc3ccc(Cl)cc23)C1` [Example 113], the EC50 is less than 100 nM.

Molecule `O=C(N[C@H]1C[C@@H](Nc2cc(C(F)(F)F)nc3ccc(Cl)cc23)CN(C(=O)C(F)F)C1)c1cn(C[C@@H](O)C(F)(F)F)nc1Cl` [Example 116] returned an EC50 of less than 100 nM.

`Cc1nn(CC(C)(C)O)cc1C(=O)N[C@H]1C[C@@H](Nc2cc(C(F)(F)F)nc3ccc(Cl)cc23)CN(C(=O)C(F)F)C1` [Example 117] registered an EC50 of less than 100 nM.

Molecule `CC(C)(O)Cn1cc(C(=O)N[C@H]2C[C@@H](Nc3cc(C(F)(F)F)nc4ccc(Cl)cc34)CN(C(=O)C(F)F)C2)c(Cl)n1` [Example 118] returned an EC50 of less than 100 nM.

Regarding `O=C(N[C@H]1C[C@@H](Nc2cc(C(F)(F)F)nc3ccc(Cl)cc23)CN(C(=O)C(F)F)C1)c1cn(CC2(O)CCC2)nc1Cl` [Example 119], the EC50 is less than 100 nM.

In the case of `O=C(N[C@H]1C[C@@H](Nc2cc(C(F)(F)F)nc3ccc(Cl)cc23)CN(C(=O)C(F)F)C1)c1cn(C[C@H](O)C(F)F)nc1Cl` [Example 120], the concentration for a half-maximal effect (EC50) was less than 100 nM.
